In patent US11524966B1 (Valo Early Discovery, Inc., priority 2017, dated 2022) one finds IC50 data, which are given here for 21 molecules.

The target in this assay is T1, USP28 (His-tagged USP28-FL-mammalian) (Homo sapiens, UniProt Q96RU2).
T1 construct: Expression of USP28 (1-1077)-TEV-6*His (pTT5 vector); made in house; host or cells: Expi293f cells (pTT5 vector)
T1 sequence (Q96RU2 1-1077): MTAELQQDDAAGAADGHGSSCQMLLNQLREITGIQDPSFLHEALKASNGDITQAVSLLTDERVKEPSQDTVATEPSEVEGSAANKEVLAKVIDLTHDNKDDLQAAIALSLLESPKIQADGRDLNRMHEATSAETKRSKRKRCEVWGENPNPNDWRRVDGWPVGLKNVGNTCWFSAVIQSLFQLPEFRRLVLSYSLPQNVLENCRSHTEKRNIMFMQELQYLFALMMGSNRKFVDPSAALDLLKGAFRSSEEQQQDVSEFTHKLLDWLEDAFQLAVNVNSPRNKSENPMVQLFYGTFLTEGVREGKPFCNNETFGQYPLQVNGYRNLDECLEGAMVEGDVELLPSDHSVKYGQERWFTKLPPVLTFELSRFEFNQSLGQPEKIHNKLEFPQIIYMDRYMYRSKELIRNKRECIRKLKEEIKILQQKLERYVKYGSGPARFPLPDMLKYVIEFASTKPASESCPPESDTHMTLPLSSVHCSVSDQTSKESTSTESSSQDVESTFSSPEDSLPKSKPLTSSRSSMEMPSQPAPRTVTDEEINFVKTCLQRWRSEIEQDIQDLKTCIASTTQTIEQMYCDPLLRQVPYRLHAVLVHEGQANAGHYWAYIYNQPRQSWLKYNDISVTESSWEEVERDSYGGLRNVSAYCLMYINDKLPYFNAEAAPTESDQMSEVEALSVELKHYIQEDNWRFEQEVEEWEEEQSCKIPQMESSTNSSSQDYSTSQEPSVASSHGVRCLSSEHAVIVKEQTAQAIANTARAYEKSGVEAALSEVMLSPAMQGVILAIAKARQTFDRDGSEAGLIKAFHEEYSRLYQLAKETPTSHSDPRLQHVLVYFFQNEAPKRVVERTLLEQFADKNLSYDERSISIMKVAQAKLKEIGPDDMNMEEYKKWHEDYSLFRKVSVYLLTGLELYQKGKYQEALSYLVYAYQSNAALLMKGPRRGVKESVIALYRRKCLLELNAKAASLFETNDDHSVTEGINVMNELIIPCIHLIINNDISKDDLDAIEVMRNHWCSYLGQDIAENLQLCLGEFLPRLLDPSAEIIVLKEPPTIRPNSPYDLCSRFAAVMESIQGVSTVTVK
The assay is described as follows: Ubiquitin-Rhodamine 110 Assay for USP28 Activity, Example A-1(a). To be noted: Ubiquitin-Rhodamine 110 assay, Example A-1(a); read-out: USP28 A-1(a) IC50 range. It counts as biochemical. An outline of the steps:
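Full-length His-tagged human USP28 (1-1077, Expi293f-expressed), […], with 25 nM Ub-Rh110 (<<Km) in pH 8.0 Tris buffer with BME, BGG, Triton X-100. 10-point dilutions (25 μM-1.3 nM), 45 min at room temperature, citric acid stop, fluorescence 485/535 nm; IC50 by 4-parameter fit.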

SMILES strings stand for the structures.

One may read the IC50 as the midpoint of a concentration-inhibition curve. Consider `Cc1ccc2c(N)c(C(=O)N[C@H]3CCc4nc(N5C[C@H](N)[C@H](C(F)F)C5)ccc4C3)sc2n1` [Example 345, 3-amino-N-[(6S)-2-[(3R,4R)-3-amino-4-(difluoromethyl)pyrrolidin-1-yl]-5,6,7,8-tetrahydroquinolin-6-yl]-6-methylthieno[2,3-b]pyridine-2-carboxamide], for which the 50% inhibitory concentration (IC50) lay within 50 to 200 nM.

Take `Cc1ccc2c(N)c(C(=O)N[C@H]3CCc4nc(N5C[C@@H](N)[C@@H](C(F)F)C5)ccc4C3)sc2n1` [Example 346, 3-amino-N-[(6S)-2-[(3S,4S)-3-amino-4-(difluoromethyl)pyrrolidin-1-yl]-5,6,7,8-tetrahydroquinolin-6-yl]-6-methylthieno[2,3-b]pyridine-2-carboxamide]: the IC50 lay within 50 to 200 nM.

As to `Cc1ccc2c(N)c(C(=O)N[C@H]3CCc4nc(N5C[C@H](C(F)F)[C@@H](N)C5)ccc4C3)sc2n1` [Example 347, 3-amino-N-[(6S)-2-[(3R,4S)-3-amino-4-(difluoromethyl)pyrrolidin-1-yl]-5,6,7,8-tetrahydroquinolin-6-yl]-6-methylthieno[2,3-b]pyridine-2-carboxamide], the IC50 fell in the range of 50 to 200 nM.

Turning to `COC[C@@H]1CN(c2ccc3c(n2)OC[C@H](NC(=O)c2sc4nc(C)cc(C)c4c2N)C3)C[C@@H]1N` [Example 348, 3-amino-N-[(3R)-7-[(3R,4R)-3-amino-4-(methoxymethyl)pyrrolidin-1-yl]-2H,3H,4H-pyrano[2,3-b]pyridin-3-yl]-4,6-dimethylthieno[2,3-b]pyridine-2-carboxamide], the half-inhibitory concentration (IC50) is 50 to 200 nM.

Turning to `COC[C@H]1CN(c2ccc3c(n2)OC[C@H](NC(=O)c2sc4nc(C)cc(C)c4c2N)C3)C[C@H]1N` [Example 349, 3-amino-N-[(3R)-7-[(3S,4S)-3-amino-4-(methoxymethyl)pyrrolidin-1-yl]-2H,3H,4H-pyrano[2,3-b]pyridin-3-yl]-4,6-dimethylthieno[2,3-b]pyridine-2-carboxamide], the IC50 fell in the range of 50 to 200 nM.

Take `CN[C@H]1CN(c2ccc3c(c2)OC[C@H](NC(=O)c2sc4nc(C)ccc4c2N)C3)C[C@@H]1O` [Example 350, 3-amino-N-[(3R)-7-[(3S,4S)-3-hydroxy-4-(methylamino)pyrrolidin-1-yl]-3,4-dihydro-2H-1-benzopyran-3-yl]-6-methylthieno[2,3-b]pyridine-2-carboxamide]: the 50% inhibitory concentration (IC50) lay within 50 to 200 nM.

Turning to `CCn1ccc2cc(C(=O)N[C@H]3CCc4nc(N5C[C@H](OC)[C@@H](N)C5)ccc4C3)cnc21` [Example 353, N-[(6S)-2-[(3S,4S)-3-amino-4-methoxypyrrolidin-1-yl]-5,6,7,8-tetrahydroquinolin-6-yl]-1-ethyl-1H-pyrrolo[2,3-b]pyridine-5-carboxamide], the IC50 lay within 200 to 2000 nM.

With `Cc1cc(C)c2c(N)c(C(=O)N[C@H]3CCc4nc(N5CC6CCC(C5)N6)ccc4C3)sc2n1` [Example 354, 3-amino-N-[(6S)-2-{3,8-diazabicyclo[3.2.1]octan-3-yl}-5,6,7,8-tetrahydroquinolin-6-yl]-4,6-dimethylthieno[2,3-b]pyridine-2-carboxamide], the half-maximal inhibitory concentration (IC50) was 1 to 50 nM.

As for `CCn1cc(Cl)c2cc(C(=O)N[C@H]3COc4c(F)c(N5CC6CCC(C5)N6)cc(F)c4C3)nnc21` [Example 355, 5-chloro-N-[(3R)-7-{3,8-diazabicyclo[3.2.1]octan-3-yl}-5,8-difluoro-3,4-dihydro-2H-1-benzopyran-3-yl]-7-ethyl-7H-pyrrolo[2,3-c]pyridazine-3-carboxamide], the half-inhibitory concentration (IC50) was in the range of 50 to 200 nM.

In the case of `CCn1cc(Cl)c2cc(C(=O)N[C@H]3COc4c(C#N)c(N5CC6CCC(C5)N6)cc(F)c4C3)nnc21` [Example 356, 5-chloro-N-[(3R)-8-cyano-7-{3,8-diazabicyclo[3.2.1]octan-3-yl}-5-fluoro-3,4-dihydro-2H-1-benzopyran-3-yl]-7-ethyl-7H-pyrrolo[2,3-c]pyridazine-3-carboxamide], the half-inhibitory concentration (IC50) is 200 to 2000 nM.

As to `Cc1ccc2c(N)c(C(=O)N[C@H]3CCc4nc(N5C[C@H](N)[C@H](OC(C)(F)F)C5)ccc4C3)sc2n1` [Example 357, 3-amino-N-[(6S)-2-[(3S,4R)-3-amino-4-(1,1-difluoroethoxy)pyrrolidin-1-yl]-5,6,7,8-tetrahydroquinolin-6-yl]-6-methylthieno[2,3-b]pyridine-2-carboxamide], the IC50 was in the range of 50 to 200 nM.

As to `Cc1ccc2c(N)c(C(=O)N[C@H]3CCc4nc(N5C[C@@H](N)[C@@H](OC(C)(F)F)C5)ccc4C3)sc2n1` [Example 358, 3-amino-N-[(6S)-2-[(3R,4S)-3-amino-4-(1,1-difluoroethoxy)pyrrolidin-1-yl]-5,6,7,8-tetrahydroquinolin-6-yl]-6-methylthieno[2,3-b]pyridine-2-carboxamide], the concentration for half-maximal inhibition (IC50) lay in the range of 200 to 2000 nM.

With `Cc1ccc2c(N)c(C(=O)N[C@H]3CCc4nc(N5C[C@H](N)[C@@H](C(F)(F)F)C5)ccc4C3)sc2n1` [Example 363, 3-amino-N-[(6S)-2-[(3R,4S)-3-amino-4-(trifluoromethyl)pyrrolidin-1-yl]-5,6,7,8-tetrahydroquinolin-6-yl]-6-methylthieno[2,3-b]pyridine-2-carboxamide], the IC50 lay within 50 to 200 nM.

In the case of `Cc1ccc2c(N)c(C(=O)N[C@H]3CCc4nc(N5C[C@@H](N)[C@H](C(F)(F)F)C5)ccc4C3)sc2n1` [Example 364, 3-amino-N-[(6S)-2-[(3S,4R)-3-amino-4-(trifluoromethyl)pyrrolidin-1-yl]-5,6,7,8-tetrahydroquinolin-6-yl]-6-methylthieno[2,3-b]pyridine-2-carboxamide], the IC50 lay within 50 to 200 nM.

For the molecule `Cc1cnc2c(N)c(C(=O)N[C@H]3CCc4nc(N5C[C@H](N)C6(COC6)C5)ccc4C3)sc2n1` [Example 365, 7-amino-N-[(6S)-2-[(8R)-8-amino-2-oxa-6-azaspiro[3.4]octan-6-yl]-5,6,7,8-tetrahydroquinolin-6-yl]-3-methylthieno[2,3-b]pyrazine-6-carboxamide], the IC50 is 1 to 50 nM.

`Cc1cnc2c(N)c(C(=O)N[C@H]3CCc4nc(N5C[C@@H](N)C6(COC6)C5)ccc4C3)sc2n1` [Example 366, 7-amino-N-[(6S)-2-[(8S)-8-amino-2-oxa-6-azaspiro[3.4]octan-6-yl]-5,6,7,8-tetrahydroquinolin-6-yl]-3-methylthieno[2,3-b]pyrazine-6-carboxamide]: the IC50 fell in the range of 200 to 2000 nM.

On to `Cc1ccc2c(N)c(C(=O)N[C@H]3COc4cc(N5CC[C@H](N)C5)ccc4C3)sc2n1` [Example 369, 3-amino-N-[(3R)-7-[(3S)-3-aminopyrrolidin-1-yl]-3,4-dihydro-2H-1-benzopyran-3-yl]-6-methylthieno[2,3-b]pyridine-2-carboxamide], for which the IC50 lay within 1 to 50 nM.

Consider `Cc1ccc2c(N)c(C(=O)N[C@H]3CCc4nc(N5C[C@H](N)[C@]6(CCCO6)C5)ccc4C3)sc2n1` [Example 390, 3-amino-N-[(6S)-2-[(5S,9S)-9-amino-1-oxa-7-azaspiro[4.4]nonan-7-yl]-5,6,7,8-tetrahydroquinolin-6-yl]-6-methylthieno[2,3-b]pyridine-2-carboxamide], for which the IC50 is 200 to 2000 nM.

Consider `Cc1ccc2c(N)c(C(=O)N[C@H]3CCc4nc(N5C[C@@H](N)[C@]6(CCCO6)C5)ccc4C3)sc2n1` [Example 391, 3-amino-N-[(6S)-2-[(5S,9R)-9-amino-1-oxa-7-azaspiro[4.4]nonan-7-yl]-5,6,7,8-tetrahydroquinolin-6-yl]-6-methylthieno[2,3-b]pyridine-2-carboxamide], for which the IC50 was in the range of 50 to 200 nM.

As for `Cc1ccc2c(N)c(C(=O)N[C@H]3CCc4nc(N5C[C@@H](N)[C@@]6(CCCO6)C5)ccc4C3)sc2n1` [Example 392, 3-amino-N-[(6S)-2-[(5R,9R)-9-amino-1-oxa-7-azaspiro[4.4]nonan-7-yl]-5,6,7,8-tetrahydroquinolin-6-yl]-6-methylthieno[2,3-b]pyridine-2-carboxamide], the concentration for half-maximal inhibition (IC50) was in the range of 200 to 2000 nM.

Consider `Cc1ccc2c(N)c(C(=O)N[C@H]3CCc4nc(N5C[C@H](N)[C@@]6(CCCO6)C5)ccc4C3)sc2n1` [Example 393, 3-amino-N-[(6S)-2-[(5R,9S)-9-amino-1-oxa-7-azaspiro[4.4]nonan-7-yl]-5,6,7,8-tetrahydroquinolin-6-yl]-6-methylthieno[2,3-b]pyridine-2-carboxamide], for which the IC50 was in the range of 50 to 200 nM.
